Among the data in patent US9670193B2 (Novartis AG, priority 2011, dated 2017) are IC50 values, retold here.

What all share (type): biochemical
Common to all, as to conditions: 5 μM substrate, 2 hours at room temperature

In test [1] the target is Human recombinant full length HDAC1 (Homo sapiens (Human), UniProt Q13547). The test can be described thus: HDAC1 assay (Test 2), acetyl-Gly-Ala-Lys(acetyl)-AMC substrate. Here is the method:
(§1) Human recombinant HDAC4 was expressed in full length form (aa 2-1084) in Sf9 insect cells (obtained from ATCC) using baculovirus generated with Bac-to-Bac system (Invitrogen). Test compounds were serially diluted to reach final test concentrations from 0.000128 μM to 10 μM. HDAC4 and test compounds were incubated in 25 mM Tris buffer pH 8.0 containing 137 mM NaCl, 2.7 mM KCl, 1 mM MgCl2, 0.05% (w/v) bovine serum albumine and 0.005% (v/v) Triton-X-100 for 2 hours at room temperature in presence of 5 μM of acetyl-Gly-Ala-Lys(ε-trifluoroacetyl)-AMC (AMC=7-amino-4-methyl coumarin) in a final volume of 9 μl. Control wells with HDAC4 only (positive control) and without HDAC4 (negative control) were included on the microplate. Bovine trypsin (4.5 μl of a 300 nM solution) was added and the plate incubated for additional 15 minutes at room temperature. The plate was placed in a fluorescence microplate reader, and read at an excitation wavelength of 360 nm and an emission wavelength of 450 nm with a 10 nm bandpath. Fluorescence values for all wells containing HDAC4 (positive control and wells with test compound) were corrected by subtracting negative control fluorescence values, and IC50 values were calculated by fitting the dose-response curves to a 4-parameter logistic function.
Test 2: HDAC1 Assay Description
A similar assay procedure as described in Test 1 was used for HDAC1. Human recombinant full length HDAC1 expressed in a baculovirus expression system was purchased from BPS BioSciences (San Diego, Calif., U.S.A.). The substrate used in the […] assay was 5 μM of acetyl-Gly-Ala-Lys(acetyl)-AMC.

In test [2] the target is Human recombinant HDAC4 (Homo sapiens (Human), UniProt P56524). The test can be described thus: HDAC4 assay (Test 1), fluorescence, acetyl-Gly-Ala-Lys(ε-trifluoroacetyl)-AMC substrate. As for the experimental part:
Test 1: HDAC4 Assay Description
as §1

Test [3] deals with Human recombinant full length HDAC6 (Homo sapiens (Human), UniProt Q9UBN7). Put plainly: HDAC6 assay (Test 3), acetyl-Gly-Ala-Lys(acetyl)-AMC substrate. Here is the method: as §1
Test 3: HDAC6 Assay Description
A similar assay procedure as described in Test 1 was used for HDAC6. Human recombinant full length HDAC6 expressed in a baculovirus expression system was purchased from BPS BioSciences (San Diego, Calif., U.S.A.). The substrate used in the […] assay was 5 μM of acetyl-Gly-Ala-Lys (acetyl)-AMC.

Human recombinant full length HDAC1, sequence (Q13547 whole entry, the tested form may be a part): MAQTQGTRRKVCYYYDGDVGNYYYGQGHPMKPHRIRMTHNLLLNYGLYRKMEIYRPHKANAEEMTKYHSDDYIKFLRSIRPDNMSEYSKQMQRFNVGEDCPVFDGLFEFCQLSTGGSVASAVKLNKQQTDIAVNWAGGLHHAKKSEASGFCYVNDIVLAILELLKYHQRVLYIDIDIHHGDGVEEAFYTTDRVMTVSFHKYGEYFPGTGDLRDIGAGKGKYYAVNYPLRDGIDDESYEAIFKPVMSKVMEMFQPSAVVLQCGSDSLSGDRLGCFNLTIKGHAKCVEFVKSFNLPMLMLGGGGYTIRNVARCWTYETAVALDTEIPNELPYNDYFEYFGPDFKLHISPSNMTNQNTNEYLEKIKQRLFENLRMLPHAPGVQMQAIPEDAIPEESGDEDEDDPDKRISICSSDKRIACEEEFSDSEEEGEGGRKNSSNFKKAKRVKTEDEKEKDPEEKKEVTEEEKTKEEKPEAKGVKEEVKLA
Human recombinant full length HDAC6, sequence (Q9UBN7 whole entry): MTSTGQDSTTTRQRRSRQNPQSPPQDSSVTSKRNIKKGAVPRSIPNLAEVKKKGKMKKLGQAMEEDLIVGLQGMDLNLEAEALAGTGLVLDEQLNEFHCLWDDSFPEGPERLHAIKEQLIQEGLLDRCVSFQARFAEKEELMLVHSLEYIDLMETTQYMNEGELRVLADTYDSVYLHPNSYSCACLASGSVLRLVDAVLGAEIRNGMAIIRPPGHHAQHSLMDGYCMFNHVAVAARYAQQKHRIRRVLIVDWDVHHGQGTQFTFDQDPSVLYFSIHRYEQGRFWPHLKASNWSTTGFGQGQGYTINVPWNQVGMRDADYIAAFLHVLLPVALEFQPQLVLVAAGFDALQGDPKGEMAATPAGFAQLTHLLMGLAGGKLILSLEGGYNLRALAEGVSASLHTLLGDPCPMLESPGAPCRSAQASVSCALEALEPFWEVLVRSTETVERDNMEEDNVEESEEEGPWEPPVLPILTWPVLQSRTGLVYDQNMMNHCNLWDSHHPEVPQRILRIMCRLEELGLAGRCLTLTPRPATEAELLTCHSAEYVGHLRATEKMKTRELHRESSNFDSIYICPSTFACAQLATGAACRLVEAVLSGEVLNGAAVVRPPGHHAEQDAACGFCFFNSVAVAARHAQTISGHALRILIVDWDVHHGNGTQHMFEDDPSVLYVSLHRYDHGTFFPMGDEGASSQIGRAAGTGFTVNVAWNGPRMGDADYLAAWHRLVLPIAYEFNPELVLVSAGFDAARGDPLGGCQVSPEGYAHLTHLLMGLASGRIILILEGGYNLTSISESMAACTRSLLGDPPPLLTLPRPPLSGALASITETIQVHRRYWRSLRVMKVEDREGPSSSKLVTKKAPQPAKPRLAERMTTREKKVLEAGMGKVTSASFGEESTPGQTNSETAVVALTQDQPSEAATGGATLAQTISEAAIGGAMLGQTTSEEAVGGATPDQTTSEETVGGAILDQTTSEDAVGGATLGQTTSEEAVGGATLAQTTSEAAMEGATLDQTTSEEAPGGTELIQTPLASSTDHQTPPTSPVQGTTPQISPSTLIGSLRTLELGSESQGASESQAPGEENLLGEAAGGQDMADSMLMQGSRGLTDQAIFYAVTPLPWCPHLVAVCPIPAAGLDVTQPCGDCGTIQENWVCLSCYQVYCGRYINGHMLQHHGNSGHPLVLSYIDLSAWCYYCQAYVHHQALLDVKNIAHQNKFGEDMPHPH
Human recombinant HDAC4, sequence (P56524 2-1084): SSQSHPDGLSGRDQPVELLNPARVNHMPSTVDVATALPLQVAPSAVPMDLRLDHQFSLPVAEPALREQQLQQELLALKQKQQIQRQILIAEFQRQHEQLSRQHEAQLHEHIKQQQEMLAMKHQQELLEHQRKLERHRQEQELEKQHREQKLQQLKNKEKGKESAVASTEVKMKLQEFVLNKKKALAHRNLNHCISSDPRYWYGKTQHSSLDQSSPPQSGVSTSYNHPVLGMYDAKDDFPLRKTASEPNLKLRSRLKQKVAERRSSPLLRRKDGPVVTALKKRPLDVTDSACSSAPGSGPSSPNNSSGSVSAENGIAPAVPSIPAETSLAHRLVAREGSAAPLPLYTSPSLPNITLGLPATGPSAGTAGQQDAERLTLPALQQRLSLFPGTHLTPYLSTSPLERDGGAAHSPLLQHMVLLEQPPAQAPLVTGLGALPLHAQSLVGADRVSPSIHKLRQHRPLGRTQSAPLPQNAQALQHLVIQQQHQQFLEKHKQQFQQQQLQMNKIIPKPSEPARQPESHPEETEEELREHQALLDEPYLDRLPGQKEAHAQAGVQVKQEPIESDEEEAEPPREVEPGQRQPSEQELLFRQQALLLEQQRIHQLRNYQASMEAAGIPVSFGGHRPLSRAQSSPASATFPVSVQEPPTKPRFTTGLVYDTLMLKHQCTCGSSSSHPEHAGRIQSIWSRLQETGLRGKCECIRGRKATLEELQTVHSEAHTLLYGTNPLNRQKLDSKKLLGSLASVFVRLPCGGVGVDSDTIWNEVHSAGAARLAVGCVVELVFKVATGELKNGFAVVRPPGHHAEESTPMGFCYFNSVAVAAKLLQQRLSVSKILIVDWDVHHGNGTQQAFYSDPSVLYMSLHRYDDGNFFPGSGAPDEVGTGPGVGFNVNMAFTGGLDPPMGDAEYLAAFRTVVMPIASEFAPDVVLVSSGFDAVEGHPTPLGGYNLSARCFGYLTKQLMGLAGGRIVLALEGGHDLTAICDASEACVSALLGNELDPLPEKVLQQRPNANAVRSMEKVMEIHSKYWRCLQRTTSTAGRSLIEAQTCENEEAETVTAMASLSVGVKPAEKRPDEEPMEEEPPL

On to `CC(=O)Nc1cnc(-c2noc(C(F)(F)F)n2)cn1` [Example 1, N-(5-(5-(trifluoromethyl)-1,2,4-oxadiazol-3-yl)pyrazin-2-yl)acetamide], for which the IC50 – broadly, the concentration that gives 50% inhibition – was more than 10 µM in test [1], 460 nM in test [2] and 1700 nM in test [3].
Regarding `N#Cc1ccc(C(=O)Nc2cnc(-c3noc(C(F)(F)F)n3)cn2)cc1` [Example 2, 4-Cyano-N-(5-(5-(trifluoromethyl)-1,2,4-oxadiazol-3-yl)pyrazin-2-yl)benzamide], the IC50 in test [1] was more than 10 µM; in test [2] it was 1400 nM; in test [3], 2600 nM.
The matching figures for `CN(Cc1ccncc1)c1ncc(-c2noc(C(F)(F)F)n2)cn1` [Example 3, N-methyl-N-(pyridin-4-ylmethyl)-5-(5-(trifluoromethyl)-1,2,4-oxadiazol-3-yl)pyrimidin-2-amine]: 3.2 µM, 39 nM and 6700 nM.
For `FC(F)(F)c1nc(-c2cnc(NCc3ccccc3)nc2)no1` [Example 4, N-benzyl-5-(5-(trifluoromethyl)-1,2,4-oxadiazol-3-yl)pyrimidin-2-amine], the half-maximal inhibitory concentration (IC50) in test [1] is more than 10 µM; in test [2], 36 nM; in test [3], 320 nM.
The matching figures for `CN(Cc1ccnc(Cl)c1)c1ncc(-c2noc(C(F)(F)F)n2)cn1` [Example 5, N-((2-chloropyridin-4-yl)methyl)-N-methyl-5-(5-(trifluoromethyl)-1,2,4-oxadiazol-3-yl)pyrimidin-2-amine]: 1.7 µM, 40 nM and 2100 nM.
For the compound `FC(F)(F)c1nc(-c2cnc(NCc3ccncc3)nc2)no1` [Example 6, N-(pyridin-4-ylmethyl)-5-(5-(trifluoromethyl)-1,2,4-oxadiazol-3-yl)pyrimidin-2-amine], the IC50 in test [1] is 0.62 µM; in test [2], 44 nM; in test [3], 990 nM.
Turning to `CC(Nc1ncc(-c2noc(C(F)(F)F)n2)cn1)c1ccccc1` (stereo not drawn) [Example 7, N-(1-phenylethyl)-5-(5-(trifluoromethyl)-1,2,4-oxadiazol-3-yl)pyrimidin-2-amine], the half-maximal inhibitory concentration (IC50) was more than 10 µM in test [1], 120 nM in test [2] and more than 400 nM in test [3].
`Cc1ccc(CNc2ncc(-c3noc(C(F)(F)F)n3)cn2)cn1` [Example 8, N-((6-methylpyridin-3-yl)methyl)-5-(5-(trifluoromethyl)-1,2,4-oxadiazol-3-yl)pyrimidin-2-amine]: the concentration for half-maximal inhibition (IC50) in test [1] worked out at 3 µM; in test [2], 25 nM; in test [3] it was 250 nM.
In the case of `CC(Nc1ncc(-c2noc(C(F)(F)F)n2)cn1)c1ccncc1` (stereo not drawn) [Example 9, N-(1-(pyridin-4-yl)ethyl)-5-(5-(trifluoromethyl)-1,2,4-oxadiazol-3-yl)pyrimidin-2-amine], the values for the concentration for half-maximal inhibition (IC50) in test [1], in test [2] and in test [3] were 4.1 µM, 22 nM and 560 nM, respectively.
`FC(F)(F)c1nc(-c2cnc(NCc3cccnc3)nc2)no1` [Example 10, N-(pyridin-3-ylmethyl)-5-(5-(trifluoromethyl)-1,2,4-oxadiazol-3-yl)pyrimidin-2-amine]: the results for the 50% inhibitory concentration (IC50) in test [1], in test [2] and in test [3] were 6.6 µM, 140 nM and 1100 nM, respectively.
As to `Cc1cccc(CNc2ncc(-c3noc(C(F)(F)F)n3)cn2)n1` [Example 11, N-((6-methylpyridin-2-yl)methyl)-5-(5-(trifluoromethyl)-1,2,4-oxadiazol-3-yl)pyrimidin-2-amine], the 50% inhibitory concentration (IC50) in test [1] was 0.51 µM; in test [2] it was 240 nM; in test [3] it was 550 nM.
As to `C[C@@H](Nc1ncc(-c2noc(C(F)(F)F)n2)cn1)c1ccccc1` [Example 12, (R)—N-(1-phenylethyl)-5-(5-(trifluoromethyl)-1,2,4-oxadiazol-3-yl)pyrimidin-2-amine], the IC50 is 3.5 µM in test [1], 49 nM in test [2] and 340 nM in test [3].
On to `CC[C@@H](Nc1ncc(-c2noc(C(F)(F)F)n2)cn1)c1ccccc1` [Example 13, (R)—N-(1-phenylpropyl)-5-(5-(trifluoromethyl)-1,2,4-oxadiazol-3-yl)pyrimidin-2-amine], for which the IC50 in test [1] amounted to 1.7 µM; in test [2], 22 nM; in test [3], 140 nM.
For `CN(CCc1ccncc1)c1ncc(-c2noc(C(F)(F)F)n2)cn1` [Example 14, N-methyl-N-(2-(pyridin-4-yl)ethyl)-5-(5-(trifluoromethyl)-1,2,4-oxadiazol-3-yl)pyrimidin-2-amine], the concentration for half-maximal inhibition (IC50) is 7.6 µM in test [1], 110 nM in test [2] and more than 10000 nM in test [3].
Take `CCC(Nc1ncc(-c2noc(C(F)(F)F)n2)cn1)c1ccncc1` (stereo not drawn) [Example 15, N-(1-(pyridin-4-yl)propyl)-5-(5-(trifluoromethyl)-1,2,4-oxadiazol-3-yl)pyrimidin-2-amine]: the IC50 in test [1] came out at 2.6 µM; in test [2] it was 20 nM; in test [3], 210 nM.
The matching figures for `Cc1cc(C(C)Nc2ncc(-c3noc(C(F)(F)F)n3)cn2)ccn1` (stereo not drawn) [Example 16]: 1.6 µM, 44 nM and 350 nM.
`Cc1cc(CN(C)c2ncc(-c3noc(C(F)(F)F)n3)cn2)ccn1` [Example 17, N-methyl-N-((2-methylpyridin-4-yl)methyl)-5-(5-(trifluoromethyl)-1,2,4-oxadiazol-3-yl)pyrimidin-2-amine]: the half-inhibitory concentration (IC50) in test [1] is 2.2 µM; in test [2], 34 nM; in test [3], 3500 nM.
For the compound `C[C@H](CN(C)C)NC(=O)c1ccc(-c2noc(C(F)(F)F)n2)nc1` [Example 18, (R)—N-(1-(dimethylamino)propan-2-yl)-6-(5-(trifluoromethyl)-1,2,4-oxadiazol-3-yl)nicotinamide], the IC50 in test [1] was more than 10 µM; in test [2] it was 250 nM; in test [3], more than 10000 nM.
The matching figures for `CC(CN(C)C)NC(=O)c1ccc(-c2noc(C(F)(F)F)n2)nc1` (stereo not drawn) [Example 19, N-(1-(dimethylamino)propan-2-yl)-6-(5-(trifluoromethyl)-1,2,4-oxadiazol-3-yl)nicotinamide]: 1.7 µM, 350 nM and more than 10000 nM.
`C[C@@H](CO)NC(=O)c1ccc(-c2noc(C(F)(F)F)n2)nc1` [Example 20, (S)—N-(1-hydroxypropan-2-yl)-6-(5-(trifluoromethyl)-1,2,4-oxadiazol-3-yl)nicotinamide]: the IC50 in test [1] was more than 10 µM; in test [2], 4300 nM; in test [3] it was more than 10000 nM.
As for `C[C@H](CN(C)Cc1ccccc1)NC(=O)c1ccc(-c2noc(C(F)(F)F)n2)nc1` [Example 21, (R)—N-(1-(benzyl(methyl)amino)propan-2-yl)-6-(5-(trifluoromethyl)-1,2,4-oxadiazol-3-yl)nicotinamide], the concentration for half-maximal inhibition (IC50) in test [1] was more than 10 µM; in test [2], 18 nM; in test [3] it was more than 10000 nM.
The like results for `CCN(CC)C[C@H](NC(=O)c1ccc(-c2noc(C(F)(F)F)n2)nc1)C(C)C` [Example 22, (R)—N-(1-(diethylamino)-3-methylbutan-2-yl)-6-(5-(trifluoromethyl)-1,2,4-oxadiazol-3-yl)nicotinamide] were, in that order, more than 10 µM, 160 nM and more than 10000 nM.
